# Source: patent US6603060B1, “Method for regulating cell death” (National Institute of Agrobiological Sciences, priority 1998, dated 2003)
# *1 amine or outer side, *2 acyl side, *3 side chain or, on linkers, in order; H or OH if unused. Where a SMILES comes first, the peptide text is derived from it. Bridges are numbered along the chain shown (N, C = ends). Roman numbers before positions name the chains, in order. [ ]: non-standard residue; d: D form. Actinocin(9to1) = Cc1c2oc3c(C)ccc(C(=O)[*:1])c3nc-2c(C(=O)[*:2])c(N)c1=O; NMeV = CN[C@H](C(=O)O)C(C)C; Sar = CNCC(=O)O
# Tests used:
# [1] = tested on: TMV-infected NN tobacco leaves; assay: Induction of necrotic lesion formation by protease inhibitors in TMV-inoculated detached leaves, NN tobacco; type: in vivo, N. tabacum cv. Samsun NN; design: key to induction of necrotic lesion formation, Tobacco cv. NN: (−) = Necrotic lesion not induced; (+) = Necrotic lesion induced
# Method: (§1) The following reagents were used as inhibitors: APMSF, Aprotinin and 3,4-D as serine protease inhibitors, E-64 as a cysteine protease inhibitor, EDTA as a metalloprotease inhibitor, and leupeptin as a serine/cysteine protease inhibitor. Each inhibitor was prepared as described below.
# (§2) For EDTA (Wako Pure Chemicals. Ind. (Osaka, Japan), an aqueous solution adjusted to pH 8.0 by NaOH was used.
# (§3) For E-64 (Boehringer Mannheim, Germany), a 50 mM solution in methanol/H2O (1:1, v/v) was used as a stock solution and subsequently diluted in water to the concentrations indicated below.
# (§4) For 3,4-D (Boehringer Mannheim, Germany), a 50 mM solution in dimethyl sulfoxide was used as a stock solution and subsequently diluted in water to the concentrations indicated below.
# (§5) Leupeptin, Aprotinin, and APMSP were each used as an aqueous solution.
# (§6) In this example, EDTA was used at concentrations of 1 mM, […] and 50 mM, and other inhibitors were used at concentrations of 0.01 mM, 0.1 mM and 1 mM.
# (§7) Prior to reagent treatment, tobacco leaves were detached, inoculated with TMV (8 μg/ml in a phosphate buffer (pH 7.0)) or mock (buffer alone), and incubated at 30° C. for 40 hr. After the incubation, petioles of the leaves were put into vials containing 0.5 ml of inhibitor solutions. The solution was absorbed through the petioles and sterile water was added to the vials within 1 hr. The treated leaves were then further incubated at 30° C.
# [2] = tested on: TMV-infected NN tobacco leaves; assay: Induction of necrotic lesion formation by protease inhibitors in TMV-inoculated detached leaves, nn tobacco; type: in vivo, N. tabacum cv. Samsun nn; design: key: (−) = Necrotic lesion not induced; (+) = Necrotic lesion induced
# Method: as §1, §2, §3, §4, §5, §6, §7
# DS9 = DS9 transcription level and protein amount after AMD treatment (northern and western blotting analysis); type: in vivo, NN tobacco
# Method: Prior to the treatments, tobacco leaves were detached, inoculated with TMV (10 μg/ml in a phosphate buffer (pH 7.0)) or mock inoculated (buffer alone), and incubated at 30° C. for 40 hr. For reagent treatment, after the incubation, petioles of the leaves were put into vials containing 0.5 ml of an inhibitor solutions containing AMD (Sigma Chemical Co., St. Louis, Mo., USA) as a 10% (v/v) methanol aqueous solution. The solution was absorbed through the petioles, and sterile water was added to the vials within 1 hr. For heat treatment, a TMV-infected NN tobacco was subjected to heat shock by treating at 50° C. for 2 minutes. Each of the treated leaves was then further incubated at 30° C. Northern analysis and Western blot analysis were performed as described in Examples 4 and 6. In addition, those treated with water were used as controls.
# TMV-infected NN tobacco [3] = conditions: AMD and heat (50° C., 2 minutes), 30° C.; cited from earlier work
# TMV-infected NN tobacco [4] = conditions: AMD and heat (50° C., 2 minutes); cited from earlier work
# TMV-infected NN tobacco [5] = assay: Induction of HR by EDTA and DCMU treatments, NN tobacco; type: in vivo, N. tabacum cv. Samsun NN; conditions: 30° C., EDTA 5 mM, DCMU 100 mM, necrotic lesion, PR-1 expression, salicylic acid
# Method: (§8) To perform an inhibitor treatment with NN tobacco and nn tobacco, EDTA, a metalloprotease inhibitor, and DCMU (3-(3,4-dichlorophenyl)-1,1-dimethylurea) (Sigma Chemical Co., St Louis, Mo., USA), an inhibitor of electron transport in a photochemical system II (PSII), were used as described in Example 8. An EDTA solution was prepared as described in Example 8. The DCMU was dissolved in methanol. The concentration of the inhibitors were 5 mM and 100 mM, respectively.
# (§9) After the treatment, leavs were further incubated at 30° C., then examined regarding the followig: formation of a necrotic lesion; expression of PR-1; presence of a marker gene for the HR protein; and accumulation of salicylic acid. For expression of the PR gene, Northern analysis was performed as described in Example 4. Salicylic acid was quantitated as follows.
# (§10) Free salicylic acid was extracted and quantitated as described by Malamy et al. (The Plant Cell, 4, 359 (1992)). HPLC analysis was performed on a μBondasphere, 5-μm C-18 (3.9 mm×15 cm) column maintained at 40° C. Isocratic separation was conducted with 23% (v/v) methanol in 20 mM sodium acetate (pH 5.0). Fluorescence detection was performed at using a Model RF-550A (Shimazu, Japan) at […]. All data were corrected for losses.
# TMV-infected NN tobacco [6] = assay: Induction of HR by EDTA and DCMU treatments, nn tobacco; type: in vivo, N. tabacum cv. Samsun nn; conditions: 30° C., EDTA 5 mM, DCMU 100 mM, necrotic lesion, PR-1 expression, salicylic acid
# Method: as §8, §9, §10
# [7] = TMV-inoculated leaves at 30° C., EDTA 1 mM, 10 mM and 50 mM, other inhibitors 0.01 mM, 0.1 mM and 1 mM
compound,measurement,setting,value
"O=c1oc(Cl)c(Cl)c2ccccc12 [3,4-D]","induction of necrotic lesion formation, Tobacco cv. NN",[1]; [7],−
same,"induction of necrotic lesion formation, Tobacco cv. nn",[2]; [7],−
"Cc1c2oc3c(C)ccc(C(=O)N[C@@H]4C(=O)N[C@H](C(C)C)C(=O)N5CCC[C@H]5C(=O)N(C)CC(=O)N(C)[C@@H](C(C)C)C(=O)O[C@@H]4C)c3nc-2c(C(=O)N[C@@H]2C(=O)N[C@H](C(C)C)C(=O)N3CCC[C@H]3C(=O)N(C)CC(=O)N(C)[C@@H](C(C)C)C(=O)O[C@@H]2C)c(N)c1=O [AMD, actinomycin D] (I: T[dV]P[Sar][NMeV] / II: T[dV]P[Sar][NMeV]; ester I:1-I:C, II:1-II:C; linker I:N-II:N via Actinocin(9to1))",DS9 transcription level,"DS9; TMV-infected NN tobacco, 30° C., northern analysis",decrease significantly
same,DS9 protein amount,"DS9; TMV-infected NN tobacco, 30° C., western blot",decrease significantly
same,"amount of the DS9 protein, mock infected leaf","DS9; leaf subjected to mock infection, treated with AMD and heat shock (HS)",remarkably decreased
same,"HR against TMV infection, NN tobacco",TMV-infected NN tobacco [3],the HR is induced
same,"HR against TMV infection, nn tobacco",TMV-infected NN tobacco [4],the HR was also induced
N=C(N)c1ccc(CS(=O)(=O)F)cc1 [APMSF],"induction of necrotic lesion formation, Tobacco cv. NN",[1]; [7],−
same,"induction of necrotic lesion formation, Tobacco cv. nn",[2]; [7],−
"CN(C)C(=O)Nc1ccc(Cl)c(Cl)c1 [DCMU, 3-(3,4-dichlorophenyl)-1,1-dimethylurea]",induction of the HR in NN tobacco,TMV-infected NN tobacco [5],induced the HR
same,induction of the HR in nn tobacco,TMV-infected NN tobacco [6],induced the HR
CC(C)C[C@H](NC(=O)[C@H]1O[C@@H]1C(=O)O)C(=O)NCCCCN=C(N)N [E-64],"induction of necrotic lesion formation, Tobacco cv. NN",[1]; [7],−
same,"induction of necrotic lesion formation, Tobacco cv. nn",[2]; [7],−
O=C(O)CN(CCN(CC(=O)O)CC(=O)O)CC(=O)O [EDTA],"induction of necrotic lesion formation, Tobacco cv. NN",[1]; in vivo,+
same,necrotic lesion in NN tobacco,[1]; in vivo,necrotic lesion was induced
same,"induction of necrotic lesion formation, Tobacco cv. nn",[2]; in vivo,+
same,induction of the HR in NN tobacco,TMV-infected NN tobacco [5],induced the HR
same,induction of the HR in nn tobacco,TMV-infected NN tobacco [6],induced the HR
CC(=O)N[C@@H](CC(C)C)C(=O)N[C@@H](CC(C)C)C(=O)N[C@H](C=O)CCCNC(=N)N [leupeptin],"induction of necrotic lesion formation, Tobacco cv. NN",[1]; [7],−
same,"induction of necrotic lesion formation, Tobacco cv. nn",[2]; [7],−
Aprotinin,"induction of necrotic lesion formation, Tobacco cv. NN",[1]; [7],−
same,"induction of necrotic lesion formation, Tobacco cv. nn",[2]; [7],−
